IC50 data for 22 compounds are collected here from patent publication US8426437B2, “Pyrroloquinoline derivatives and their use as protein kinases inhibitors” (Pierre Fabre Medicament, priority 2005, dated 2013).

SMILES strings stand for the structures. Where a name gives a salt, the structure may show the parent alone. A value given as a limit tells only on which side of the number the result lay.

Type in all cases: biochemical
One experiment concerns the target T1, RET (Homo sapiens, UniProt P07949).
T1 construct: purchased Upstate 14-570MG
As to the kind of experiment: Inhibition of RET kinase activity, recombinant RET method (Kinase-Glo). The note with it: RET 2 μg/ml, poly-EY4 substrate, 20 μM ATP, two hours at 30° C. The method, boiled down: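 Recombinant RET at 2 μg/ml in 20 mM MOPS/NaOH pH 7.0, 1 mM EDTA, 5% glycerol, 0.01% Brij35, 0.1% 2-mercaptoethanol, 1 mg/ml BSA; compounds 10 nM–30 μM final.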

Another experiment has as its target T2, TrkA (Homo sapiens, UniProt P04629).
T2 construct: purchased Upstate 14-571
As to the kind of experiment: Inhibition of kinase TrkA (Kinase-Glo). The note with it: TrkA 4 μg/ml, 30 μM ATP, two hours at 30° C. On the procedure: Protein TrkA (Upstate 14-571; batch #25634U) is incubated at a concentration of 4 μg/ml in a buffer containing 8 mM of MOPS/NaOH pH7, 0.2 mM EDTA, 40 mM MgAc (Sigma #229768), 1 mM DTT (Fluka #43816), NaOV 1 mM, 0.01% Triton Tx100, in the presence of 1 mg/ml of peptide substrate poly-EY (Upstate #P0275), and 30 μM of ATP.
The dilution buffer for TrkA is as follows: 20 mM MOPS/NaOH pH7, 1 mM EDTA, 5% glycerol, 0.01% Brij35, 0.1% 2-mercapto, 1 mg/ml BSA.
(§1) The compound to be tested is first added to the enzyme to give a reaction volume of 50 μl. The dilution of the compounds of the invention is distributed so as to obtain a scale of final concentrations between 10 nM and 30 μM.
(§2) After incubation of the reaction mixture for two hours at 30° C., the level of ATP that remains is assayed using the Kinase-Glo Luminescent Kinase Assay (Promega #V6712) according to the conditions recommended by the supplier. The luminescence induced is read in a plate reader (Envision-Perkin Elmer).

The next experiment deals with T3, TrkB (Homo sapiens, UniProt Q16620).
T3 construct: purchased Upstate 14-507
The experiment in a line: Inhibition of kinase TrkB (Kinase-Glo). As to conditions: TrkB 4 μg/ml, 40 μM ATP, two hours at 30° C. How it is done:
Protein TrkB (Upstate 14-507; batch #25578U) is incubated at a concentration of 4 μg/ml in a buffer containing 8 mM of MOPS/NaOH pH7, 0.2 mM EDTA, 40 mM MgAc (Sigma #229768), 1 mM DTT (Fluka #43816), NaOV 1 mM, 25 mM 2-glycerolphosphate (Sigma #G9891), in the presence of 2.5 mg/ml of peptide substrate poly-EY (Upstate #P0275), and 40 μM of ATP.
The dilution buffer for TrkB is as follows: 20 mM MOPS/NaOH pH7, 1 mM EDTA, 5% glycerol, 0.01% Brij35, 0.1% 2-mercapto, 1 mg/ml BSA.
as §1, §2

The next experiment has as its target T4, PIM-1 (Homo sapiens, UniProt P11309).
T4 construct: purchased Upstate 14-573
The experiment in a line: Inhibition of kinase PIM-1 (Kinase-Glo). The note with it: PIM-1 0.625 μg/ml, 10 μM ATP, forty minutes at 30° C. How it is done: Protein PIM-1 (Upstate #14-573 batch 25864U) is incubated at a concentration of 0.625 μg/ml in a buffer containing 8 mM of MOPS/NaOH pH7, 0.2 mM EDTA, 5 mM MgAc (Sigma #229768), 0.01% Triton Tx100, in the presence of 70 μM of peptide substrate S6 Kinase/Rsk2 (Upstate #12-243), and 10 μM of ATP.
The dilution buffer for PIM-1 is as follows: 20 mM MOPS/NaOH pH7, 1 mM EDTA, 5% glycerol, 0.01% Brij35, 0.1% 2-mercapto, 1 mg/ml BSA
as §1
After incubation of the reaction mixture for forty minutes at 30° C., the level of ATP that remains is assayed using the Kinase-Glo Luminescent Kinase Assay (Promega #V6712) according to the conditions recommended by the supplier. The luminescence induced is read in a plate reader (Envision-Perkin Elmer).

T2 sequence (P04629 33-796): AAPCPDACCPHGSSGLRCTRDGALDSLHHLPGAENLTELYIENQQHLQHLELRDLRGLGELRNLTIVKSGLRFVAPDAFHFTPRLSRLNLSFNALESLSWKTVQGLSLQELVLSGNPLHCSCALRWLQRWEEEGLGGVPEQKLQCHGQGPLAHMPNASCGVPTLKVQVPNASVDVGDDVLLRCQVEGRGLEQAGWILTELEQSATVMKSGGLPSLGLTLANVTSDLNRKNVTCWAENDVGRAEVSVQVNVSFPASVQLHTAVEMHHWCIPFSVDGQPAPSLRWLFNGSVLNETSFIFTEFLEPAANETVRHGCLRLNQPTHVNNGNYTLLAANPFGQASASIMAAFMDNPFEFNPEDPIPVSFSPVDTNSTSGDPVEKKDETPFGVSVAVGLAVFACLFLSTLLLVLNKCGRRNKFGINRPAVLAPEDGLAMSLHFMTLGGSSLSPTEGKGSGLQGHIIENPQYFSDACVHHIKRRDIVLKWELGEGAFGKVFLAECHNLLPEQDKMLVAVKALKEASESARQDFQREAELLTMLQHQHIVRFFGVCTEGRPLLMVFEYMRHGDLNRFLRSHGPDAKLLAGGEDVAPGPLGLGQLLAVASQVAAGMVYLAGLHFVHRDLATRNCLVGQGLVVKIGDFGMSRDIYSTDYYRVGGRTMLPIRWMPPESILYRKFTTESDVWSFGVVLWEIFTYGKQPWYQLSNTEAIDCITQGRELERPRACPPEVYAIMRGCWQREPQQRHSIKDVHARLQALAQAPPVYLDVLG
T3 sequence (Q16620 32-822): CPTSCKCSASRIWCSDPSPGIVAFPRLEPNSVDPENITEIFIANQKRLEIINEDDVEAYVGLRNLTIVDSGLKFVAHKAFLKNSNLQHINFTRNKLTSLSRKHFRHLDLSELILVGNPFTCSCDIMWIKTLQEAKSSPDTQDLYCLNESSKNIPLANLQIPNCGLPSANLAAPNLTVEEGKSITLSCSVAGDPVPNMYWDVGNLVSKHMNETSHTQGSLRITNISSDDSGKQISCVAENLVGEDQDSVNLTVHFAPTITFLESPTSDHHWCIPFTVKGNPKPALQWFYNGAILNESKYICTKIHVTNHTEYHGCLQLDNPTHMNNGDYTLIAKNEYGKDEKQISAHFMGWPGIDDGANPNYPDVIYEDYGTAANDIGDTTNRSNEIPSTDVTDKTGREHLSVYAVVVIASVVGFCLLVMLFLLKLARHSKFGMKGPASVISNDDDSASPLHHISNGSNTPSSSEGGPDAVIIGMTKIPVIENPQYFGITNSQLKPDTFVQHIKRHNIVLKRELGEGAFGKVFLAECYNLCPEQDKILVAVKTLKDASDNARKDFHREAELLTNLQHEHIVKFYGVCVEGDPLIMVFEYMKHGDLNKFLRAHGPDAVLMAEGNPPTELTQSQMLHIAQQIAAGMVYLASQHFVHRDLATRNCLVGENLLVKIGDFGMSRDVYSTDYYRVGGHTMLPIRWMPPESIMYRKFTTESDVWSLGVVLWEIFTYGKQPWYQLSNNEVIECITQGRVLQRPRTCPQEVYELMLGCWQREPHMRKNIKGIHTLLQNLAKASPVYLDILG
T4 sequence (P11309 whole entry): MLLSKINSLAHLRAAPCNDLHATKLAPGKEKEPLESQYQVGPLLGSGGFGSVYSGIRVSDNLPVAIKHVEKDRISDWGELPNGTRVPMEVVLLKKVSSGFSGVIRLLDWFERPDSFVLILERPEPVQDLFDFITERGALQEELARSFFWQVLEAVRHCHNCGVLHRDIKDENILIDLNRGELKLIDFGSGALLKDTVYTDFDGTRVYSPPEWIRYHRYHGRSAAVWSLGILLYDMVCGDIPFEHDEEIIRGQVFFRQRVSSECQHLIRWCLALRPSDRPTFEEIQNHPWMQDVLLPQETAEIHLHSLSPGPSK
T1 sequence (P07949 29-1114): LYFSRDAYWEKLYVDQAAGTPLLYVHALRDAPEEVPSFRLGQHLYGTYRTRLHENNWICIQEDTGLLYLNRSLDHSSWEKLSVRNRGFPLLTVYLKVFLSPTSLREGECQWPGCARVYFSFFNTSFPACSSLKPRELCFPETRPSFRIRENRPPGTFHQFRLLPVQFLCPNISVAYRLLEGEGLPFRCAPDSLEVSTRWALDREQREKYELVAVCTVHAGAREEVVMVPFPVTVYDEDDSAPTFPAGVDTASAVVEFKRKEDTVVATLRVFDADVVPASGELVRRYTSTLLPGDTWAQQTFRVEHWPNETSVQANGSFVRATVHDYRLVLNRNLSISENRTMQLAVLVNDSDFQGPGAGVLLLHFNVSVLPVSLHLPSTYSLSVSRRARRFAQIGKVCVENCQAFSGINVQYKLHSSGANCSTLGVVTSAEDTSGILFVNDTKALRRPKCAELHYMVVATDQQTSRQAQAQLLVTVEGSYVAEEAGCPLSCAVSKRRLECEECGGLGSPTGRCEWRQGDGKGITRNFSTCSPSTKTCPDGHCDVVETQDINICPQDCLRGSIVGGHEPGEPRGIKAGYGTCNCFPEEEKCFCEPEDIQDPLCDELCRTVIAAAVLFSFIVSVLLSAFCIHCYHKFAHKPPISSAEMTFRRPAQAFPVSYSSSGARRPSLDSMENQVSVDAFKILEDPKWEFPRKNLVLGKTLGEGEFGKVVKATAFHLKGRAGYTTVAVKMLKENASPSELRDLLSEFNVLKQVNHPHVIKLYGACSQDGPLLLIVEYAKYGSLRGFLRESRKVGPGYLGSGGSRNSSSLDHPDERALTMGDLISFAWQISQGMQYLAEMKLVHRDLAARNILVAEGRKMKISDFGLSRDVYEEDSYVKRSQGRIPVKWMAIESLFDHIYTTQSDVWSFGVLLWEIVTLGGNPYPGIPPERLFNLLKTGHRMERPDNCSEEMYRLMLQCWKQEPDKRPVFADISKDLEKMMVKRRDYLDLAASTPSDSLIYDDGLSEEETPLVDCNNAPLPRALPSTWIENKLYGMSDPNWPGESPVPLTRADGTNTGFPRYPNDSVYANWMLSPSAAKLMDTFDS

For the compound `CCOC(=O)c1c[nH]c2c(=O)[nH]c3ccc(S(=O)(=O)Nc4ccccc4)cc3c12` [Compound 2, 4-Oxo-8-phenylsulfamoyl-4,5-dihydro-3H-pyrrolo[2,3-c]quinoline-1-ethyl carboxylate], the IC50 at RET was less than 100 nM; against TrkA, 1000 to 10000 nM; against TrkB, 1000 to 10000 nM.
Turning to `CCOC(=O)c1c[nH]c2c(=O)[nH]c3ccc(S(=O)(=O)Nc4ccc(C)cc4)cc3c12` [Compound 6, 4-Oxo-8-p-tolylsulfamoyl-4,5-dihydro-3H-pyrrolo[2,3-c]quinoline-1-ethyl carboxylate], the IC50 at RET is 100 to 1000 nM; against TrkA it was 10000 to 100000 nM; against TrkB, 10000 to 100000 nM.
As for `CCOC(=O)c1c[nH]c2c(=O)[nH]c3ccc(S(=O)(=O)Nc4cccc(OC)c4)cc3c12` [Compound 8, 8-(3-Methoxy-phenylsulfamoyl)-4-oxo-4,5-dihydro-3H-pyrrolo[2,3-c]quinoline-1-ethyl carboxylate], the IC50 is 100 to 1000 nM at RET, 10000 to 100000 nM against TrkA and 10000 to 100000 nM on TrkB.
For `CCOC(=O)c1c[nH]c2c(=O)[nH]c3ccc(NS(=O)(=O)c4ccc(F)cc4)cc3c12` [Compound 43, 8-(4-Fluoro-benzenesulfonylamino)-4-oxo-4,5-dihydro-3H-pyrrolo[2,3-c]quinoline-1-ethyl carboxylate], the IC50 lay within 100 to 1000 nM on RET, 1000 to 10000 nM against TrkA and 1000 to 10000 nM against TrkB.
As for `CN(C)CCNC(=O)c1c[nH]c2c(=O)[nH]c3ccccc3c12` [Compound 79, N-(2-Dimethylamino-ethyl)-4-oxo-4,5-dihydro-3H-pyrrolo[2,3-c]quinoline-1-carboxamide], the IC50 at RET and on PIM-1 was 10000 to 100000 nM throughout.
For `COC(=O)c1c[nH]c2c(=O)[nH]c3ccc(S(=O)(=O)N4CCN(C)CC4)cc3c12` [Compound 95, 8-(4-Methyl-piperazine-1-sulfonyl)-4-oxo-4,5-dihydro-3H-pyrrolo[2,3-c]quinoline-1-methyl carboxylate], the IC50 at RET lay in the range of 1000 to 10000 nM; against PIM-1, 10000 to 100000 nM.
With `O=C(OC1CCCC1)c1c[nH]c2c(=O)[nH]c3ccc(S(=O)(=O)NC4CCNCC4)cc3c12` [Compound 116, 4-Oxo-8-(piperidin-4-ylsulfamoyl)-4,5-dihydro-3H-pyrrolo[2,3-c]quinoline-1-cyclopentyl carboxylate], the IC50 is less than 100 nM on RET and 1000 to 10000 nM at PIM-1.
With `O=C(OCC1CCOC1)c1c[nH]c2c(=O)[nH]c3ccc(S(=O)(=O)NC4CCNCC4)cc3c12` (stereo not drawn) [Compound 118, 4-Oxo-8-(piperidin-4-ylsulfamoyl)-4,5-dihydro-3H-pyrrolo[2,3-c]quinoline-1-methyltetrahydrofuran-3-yl carboxylate], the IC50 lay within 100 to 1000 nM at RET and 10000 to 100000 nM on PIM-1.
With `CCOC(=O)c1c[nH]c2c(=O)[nH]c3ccc(S(=O)(=O)NCC4CCNCC4)cc3c12` [Compound 121, 4-Oxo-8-[(piperidin-4-ylmethyl)-sulfamoyl]-4,5-dihydro-3H-pyrrolo[2,3-c]quinoline-1-ethyl carboxylate], the IC50 on RET and at PIM-1 was 1000 to 10000 nM in each case.
`CCOC(=O)c1c[nH]c2c(=O)[nH]c3ccc(I)cc3c12` [Compound 209, 8-Iodo-4-oxo-4,5-dihydro-3H-pyrrolo[2,3-c]quinoline-1-ethyl carboxylate]: the IC50 at RET and against PIM-1 was 100 to 1000 nM in each case.
Regarding `CCOC(=O)c1c[nH]c2c(=O)[nH]c3ccc(SC4CCCCC4)cc3c12` [Compound 221, 8-Cyclohexylsulfanyl-4-oxo-4,5-dihydro-3H-pyrrolo[2,3-c]quinoline-1-ethyl carboxylate], the IC50 at RET was 100 to 1000 nM; against PIM-1, 1000 to 10000 nM.
As for `CCOC(=O)c1c[nH]c2c(=O)[nH]c3ccc(SCc4ccccc4)cc3c12` [Compound 222, 8-Benzylsulfanyl-4-oxo-4,5-dihydro-3H-pyrrolo[2,3-c]quinoline-1-ethyl carboxylate], the IC50 was 100 to 1000 nM on RET and 1000 to 10000 nM against PIM-1.
For `CCOC(=O)c1c[nH]c2c(=O)[nH]c3ccc(-c4cccc(CNC)c4)cc3c12` [Compound 241, 8-(3-Methylaminomethyl-phenyl)-4-oxo-4,5-dihydro-3H-pyrrolo[2,3-c]quinoline-1-ethyl carboxylate], the IC50 at RET was 100 to 1000 nM; against PIM-1, 1000 to 10000 nM.
In the case of `CCOC(=O)c1c[nH]c2c(=O)[nH]c3ccc(-c4ccc(N)cc4)cc3c12` [Compound 244, 8-(4-Aminophenyl)-4-oxo-4,5-dihydro-3H-pyrrolo[2,3-c]quinoline-1-ethyl carboxylate], the IC50 at RET and on PIM-1 was 100 to 1000 nM throughout.
As for `CCOC(=O)c1c[nH]c2c(=O)[nH]c3ccc(-c4ccc(Cl)nc4)cc3c12` [Compound 259, 8-(6-Chloro-pyridin-3-yl)-4-oxo-4,5-dihydro-3H-pyrrolo[2,3-c]quinoline-1-ethyl carboxylate], the IC50 on RET and against PIM-1 was 1000 to 10000 nM each time.
`CCOC(=O)c1c[nH]c2c(=O)[nH]c3ccc(-c4ccnc(N)n4)cc3c12` [Compound 261, 8-(2-Amino-pyrimidin-4-yl)-4-oxo-4,5-dihydro-3H-pyrrolo[2,3-c]quinoline-1-ethyl carboxylate]: the concentration for half-maximal inhibition (IC50) at RET lay in the range of 100 to 1000 nM; at PIM-1 it was 10000 to 100000 nM.
Taken in the same sequence, the figures for `CCOC(=O)c1c[nH]c2c(=O)[nH]c3ccc(-c4ccnc(N(C)C)n4)cc3c12` [Compound 262, 8-(2-Dimethylamino-pyrimidin-4-yl)-4-oxo-4,5-dihydro-3H-pyrrolo[2,3-c]quinoline-1-ethyl carboxylate] were 1000 to 10000 nM and 1000 to 10000 nM.
For `CCOC(=O)c1c[nH]c2c(=O)[nH]c3ccc(-c4ccnc(NC)n4)cc3c12` [Compound 263, 8-(2-Methylamino-pyrimidin-4-yl)-4-oxo-4,5-dihydro-3H-pyrrolo[2,3-c]quinoline-1-ethyl carboxylate formate], the IC50 at RET is 100 to 1000 nM; at PIM-1, 1000 to 10000 nM.
Turning to `CCOC(=O)c1c[nH]c2c(=O)[nH]c3ccc(-c4ccnc(N5CCN(C(C)=O)CC5)n4)cc3c12` [Compound 268, 8-[2-(4-Acetyl-piperazin-1-yl)-pyrimidin-4-yl]-4-oxo-4,5-dihydro-3H-pyrrolo[2,3-c]quinoline-1-ethyl carboxylate], the IC50 on RET and against PIM-1 was 1000 to 10000 nM in each case.
`CCOC(=O)c1c[nH]c2c(=O)[nH]c3ccc(-c4ccnc(N(C)CCN(C)C)n4)cc3c12` [Compound 269, 8-{2-[(2-Dimethylamino-ethyl)-methyl-amino]-pyrimidin-4-yl}-4-oxo-4,5-dihydro-3H-pyrrolo[2,3-c]quinoline-1-ethyl carboxylate formate]: the IC50 on RET and at PIM-1 was 1000 to 10000 nM each time.
With `CCOC(=O)c1c[nH]c2c(=O)[nH]c3ccc(-c4csc(N)n4)cc3c12` [Compound 270, 8-(2-Amino-thiazol-4-yl)-4-oxo-4,5-dihydro-3H-pyrrolo[2,3-c]quinoline-1-ethyl carboxylate], the IC50 is 100 to 1000 nM at RET and 10000 to 100000 nM against PIM-1.
Turning to `CCOC(=O)c1c[nH]c2c(=O)[nH]c3ccc(-c4csc(C5CCNCC5)n4)cc3c12` [Compound 277, 4-Oxo-8-(2-piperidin-4-yl-thiazol-4-yl)-4,5-dihydro-3H-pyrrolo[2,3-c]quinoline-1-ethyl carboxylate], the IC50 is 100 to 1000 nM at RET and 1000 to 10000 nM on PIM-1.
